According to patent US8426387B2, “Treatments for cancer” (priority 2006, dated 2013):

Columns and labels:
[1] = test system: androgen receptor positive and receptor negative human prostate cancer cell lines; conditions: 1 mM boric acid; RPMI1640 media
Description: (§1) The relationship between diet and cancer is an active area of investigation. […] Fruits and vegetables are known to be good sources of dietary boron. To explore a possible cellular mechanism for the effect of boron on prostate cancer 1 mM boric acid was added to several cancer cell lines; three human prostate, and for comparison, five human breast cell lines.

[2] = test system: a breast cancer cell line; conditions: 1 mM boron
Description: as §1

[3] = test system: estrogen receptor negative human breast cancer cell lines; conditions: 1 mM boric acid; two cell lines; MEM supplemented with 10% FBS and 25 mM HEPES
Description: as §1

DU-145 cell line = conditions: 1 mM boron
Description: as §1

[4] = test system: DU-145 androgen receptor negative human prostate cell line
Description: as §1

DU-145 = conditions: 1 mM boric acid
Description: as §1

[5] = test system: estrogen receptor positive cell lines; assay: cells
Description: as §1

[6] = target: T1, DU145 cell surface-bound uPA (Homo sapiens, UniProt P00749); conditions: DU145 cells; read-out: Ki value in cell surface-mediated plasminogen activation; cited from earlier work
T1 construct: endogenous in cells; host or cells: DU145 prostate carcinoma cells

OB(O)O [boric acid]
growth response [1]: failed to show a response | apoptosis or necrosis [2]: does not induce apoptosis or necrosis | growth inhibition [3]: did not show growth inhibition | apoptosis or necrosis (DU-145 cell line): does not induce apoptosis or necrosis | growth ([4]; 1 mM boric acid, supplemented RPMI media): completely arrested | reversibility of growth inhibition ([4]; boric acid removed on Day 3, cell growth resumed by Day 6): reversible | cell cycle block or apoptosis (DU-145): does not block the cell cycle or induce apoptosis | growth inhibition ([5]; 1 mM boric acid, two estrogen receptor positive cell lines, MEM media or RPMI1640, supplemented): failed to exhibit growth inhibition | inhibition at 1000 µM ([5]; Homo sapiens, 216 h, read-out: inhibition in growth): 20% | apoptosis by flow cytometry ([5]; third estrogen receptor positive breast cancer cell line, preliminary results): may be inducing apoptosis

B1: rMaspin(i): Purified recombinant maspin produced in baculovirus-infected Spodoptera frugiperda Sf9 insect cells (protein, UniProt P36952 1-375, looked up)
Serpin B5: MDALQLANSAFAVDLFKQLCEKEPLGNVLFSPICLSTSLSLAQVGAKGDTANEIGQVLHFENVKDVPFGFQTVTSDVNKLSSFYSLKLIKRLYVDKSLNLSTEFISSTKRPYAKELETVDFKDKLEETKGQINNSIKDLTDGHFENILADNSVNDQTKILVVNAAYFVGKWMKKFSESETKECPFRVNKTDTKPVQMMNMEATFCMGNIDSINCKIIELPFQNKHLSMFILLPKDVEDESTGLEKIEKQLNSESLSQWTNPSTMANAKVKLSIPKFKVEKMIDPKACLENLGLKHIFSEDTSDFSGMSETKGVALSNVIHKVCLEITEDGGDSIEVPGARILQHKDELNADHPFIYIIRHNKTRNIIFFGKFCSP
modifications: recombinant, Sf9 baculovirus-expressed
notes: Purified recombinant maspin produced in baculovirus-infected Spodoptera frugiperda Sf9 insect cells
Ki [6]: 20 nM
